In patent US10335445B2, “Compositions and methods of antiallergic phorbol ester and phorbol derivatives as the main active ingredients from the seeds of aquilaria malaccensis” (WE-WIN APPLIED BIO-TECH CO., LTD., priority 2016, dated 2019):

Key:
RBL-2H3 cells [1] = test: A23187-induced degranulation β-hexosaminidase release assay; format: cell-based; settings: Rattus norvegicus, A23187 1 μM
Description: (§1) Cell culture: The mucosal mast cell-derived rat basophilic leukemia (RBL-2H3) cell line was purchased from the Bioresource Collection and Research Center (Hsin-Chu, Taiwan). Cells were grown in DMEM medium supplemented with 10% FBS and 100 U/mL penicillin plus 100 μg/mL streptomycin. Cells were cultured in 10 cm cell culture dishes at 37° C. in a humidified chamber with 5% CO2 in air.
(§2) Degranulation β-hexosaminidase assay induced by A23187 or antigen: The degree of A23187- and antigen-induced degranulation in RBL-2H3 cells was determined by a β-hexosaminidase release assay as described previously (Chen et al., J. Nat. Prod., 72, 950-953, 2009; Matsuda et al., Bioorg. Med. Chem., 12, 5891-5898, 2004) with following modifications. RBL-2H3 cells were seeded in a 96-well plate (2×10^4 cells/well) for A23187-induced and in 48-well plate (3×10^4 cells/well) for antigen-induced experiment. Cells were treated with various concentrations of the samples for 20 h. Dexamethasone (10 nM) was used as a positive control. The cells for the antigen-induced experiment were first sensitized with anti-DNP IgE (5 μg/mL) for at least 2 h. […] Absorbance was measured at 405 nm on a microplate reader (Multiskan Ascent, Thermo Scientific). The inhibition percentage of β-hexosaminidase release was calculated as the percentage of control value (untreated stimulated cells). […]

RBL-2H3 cells [2] = test: antigen (DNP-BSA)-induced degranulation β-hexosaminidase release assay; format: cell-based; settings: Rattus norvegicus
Description: as §1, §2

## CCCCCCC/C=C/C=C/C=C\C(=O)O[C@@H]1[C@@H](C)[C@@]2(O)[C@@H](C=C(CO)C[C@]3(O)C(=O)C(C)=C[C@@H]23)[C@@H]2C(C)(C)[C@]12OC(C)=O [phorbol ester I, 12-O-(2Z,4E,6E)-tetradeca-2,4,6-trienoylphorbol-13-acetate]
RBL-2H3 cells [1]
  IC50: 1.7 nM
RBL-2H3 cells [2]
  IC50: 11 nM
